Among the data in US9096500B2, “Acyl sulfonamide compounds” (Pfizer Limited, priority 2010, dated 2015) are IC50 values, retold here.

This assay addresses T1, Nav1.7 (or SCN9A) channel (Homo sapiens, UniProt Q15858).
T1 construct: expressed in transfected cells
In words: Nav1.7 (hSCN9A) electrophysiology assay, PatchXpress platform. The following applies: estimated IC50 from single point electrophysiology data, HEK cells stably expressing hSCN9A, held at V1/2 of inactivation, read-out: Nav1.7 EIC50. It is filed as cell-based. The essentials: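 HEK cells stably expressing hSCN9A were recorded by whole-cell voltage clamp, including on PatchXpress, at 22–24°C with extracellular solution at pH 7.4. A 20 msec step to 0 mV followed an 8 s conditioning prepulse to the empirically determined inactivation V1/2. Inhibition was taken from current amplitude before vs after compound.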

T1 sequence (Q15858 whole entry): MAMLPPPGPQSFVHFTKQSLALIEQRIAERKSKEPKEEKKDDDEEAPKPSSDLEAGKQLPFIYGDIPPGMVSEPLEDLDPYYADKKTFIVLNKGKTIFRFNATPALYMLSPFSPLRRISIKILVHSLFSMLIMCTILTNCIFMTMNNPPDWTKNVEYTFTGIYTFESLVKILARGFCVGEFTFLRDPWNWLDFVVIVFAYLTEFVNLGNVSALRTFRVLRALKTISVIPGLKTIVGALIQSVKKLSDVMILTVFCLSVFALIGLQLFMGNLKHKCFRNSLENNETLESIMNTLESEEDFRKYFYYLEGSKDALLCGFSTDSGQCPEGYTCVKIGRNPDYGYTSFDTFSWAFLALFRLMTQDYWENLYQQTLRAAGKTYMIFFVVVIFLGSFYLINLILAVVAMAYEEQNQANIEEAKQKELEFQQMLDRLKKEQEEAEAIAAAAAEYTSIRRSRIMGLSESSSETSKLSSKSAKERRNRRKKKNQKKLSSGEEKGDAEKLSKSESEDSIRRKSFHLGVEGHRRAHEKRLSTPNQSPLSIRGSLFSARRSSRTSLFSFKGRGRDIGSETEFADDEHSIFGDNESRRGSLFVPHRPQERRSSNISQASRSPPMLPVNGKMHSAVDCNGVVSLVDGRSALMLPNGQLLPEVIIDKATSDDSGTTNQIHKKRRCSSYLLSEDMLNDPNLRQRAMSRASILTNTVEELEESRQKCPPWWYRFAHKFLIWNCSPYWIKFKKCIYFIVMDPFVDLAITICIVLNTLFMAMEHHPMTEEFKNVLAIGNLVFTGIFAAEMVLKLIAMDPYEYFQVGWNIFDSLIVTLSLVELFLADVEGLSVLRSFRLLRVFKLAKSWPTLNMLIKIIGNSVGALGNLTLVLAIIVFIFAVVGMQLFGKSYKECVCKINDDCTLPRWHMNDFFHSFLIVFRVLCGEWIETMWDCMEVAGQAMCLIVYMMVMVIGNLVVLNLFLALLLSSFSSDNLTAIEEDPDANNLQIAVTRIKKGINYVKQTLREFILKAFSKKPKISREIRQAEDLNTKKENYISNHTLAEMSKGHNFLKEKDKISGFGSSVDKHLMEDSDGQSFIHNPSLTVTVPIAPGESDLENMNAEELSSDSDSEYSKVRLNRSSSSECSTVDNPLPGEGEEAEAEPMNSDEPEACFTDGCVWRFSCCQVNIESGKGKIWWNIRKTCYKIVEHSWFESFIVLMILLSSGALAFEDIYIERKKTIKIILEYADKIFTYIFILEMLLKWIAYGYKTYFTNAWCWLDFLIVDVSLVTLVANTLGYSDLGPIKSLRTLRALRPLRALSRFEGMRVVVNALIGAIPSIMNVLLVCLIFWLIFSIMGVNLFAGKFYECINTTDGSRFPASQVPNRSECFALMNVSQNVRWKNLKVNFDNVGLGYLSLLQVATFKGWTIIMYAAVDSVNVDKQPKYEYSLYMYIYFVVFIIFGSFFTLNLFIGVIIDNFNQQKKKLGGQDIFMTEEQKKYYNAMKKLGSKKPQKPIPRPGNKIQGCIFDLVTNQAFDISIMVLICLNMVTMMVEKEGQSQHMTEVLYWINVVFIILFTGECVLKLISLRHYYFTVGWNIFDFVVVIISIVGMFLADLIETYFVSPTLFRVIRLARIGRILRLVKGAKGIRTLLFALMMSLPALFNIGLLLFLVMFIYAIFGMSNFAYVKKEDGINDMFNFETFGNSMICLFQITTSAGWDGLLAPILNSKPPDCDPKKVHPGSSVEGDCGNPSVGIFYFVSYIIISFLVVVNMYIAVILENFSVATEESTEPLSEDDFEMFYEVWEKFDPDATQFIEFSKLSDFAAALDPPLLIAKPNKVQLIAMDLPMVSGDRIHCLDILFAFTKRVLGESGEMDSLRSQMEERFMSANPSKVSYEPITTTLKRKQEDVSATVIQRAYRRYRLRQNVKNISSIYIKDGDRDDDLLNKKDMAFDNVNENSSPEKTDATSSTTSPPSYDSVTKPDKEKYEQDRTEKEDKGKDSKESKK

On to `CS(=O)(=O)NC(=O)c1cc(F)c(COc2ccccc2F)cc1F` [Example 110, 2,5-difluoro-4-[(2-fluorophenoxy)methyl]-N-(methylsulfonyl)benzamide], for which the IC50 was 2200 nM.
Turning to `CS(=O)(=O)NC(=O)c1cc(F)c(COc2cccc(F)c2F)cc1F` [Example 111, 4-[(2,3-difluorophenoxy)methyl]-2,5-difluoro-N-(methylsulfonyl)benzamide], the IC50 was more than 1000 nM.
For the molecule `CCc1ccccc1OCc1cc(F)c(C(=O)NS(C)(=O)=O)cc1F` [Example 112, 4-[(2-ethylphenoxy)methyl]-2,5-difluoro-N-(methylsulfonyl)benzamide], the IC50 was 1400 nM.
On to `CN1CCN(c2cccc(OCc3cc(F)c(C(=O)NS(C)(=O)=O)cc3F)c2)CC1` [Example 113, 2,5-difluoro-4-{[3-(4-methylpiperazin-1-yl)phenoxy]methyl}-N-(methylsulfonyl)benzamide], for which the IC50 is 11000 nM.
Consider `Cc1ccc(OCc2cc(F)c(C(=O)NS(C)(=O)=O)cc2F)cc1` [Example 115, 2,5-difluoro-4-[(4-methylphenoxy)methyl]-N-(methylsulfonyl)benzamide], for which the IC50 is 620 nM.
Consider `CS(=O)(=O)NC(=O)c1cc(F)c(COc2cccc(F)c2)cc1F` [Example 116, 2,5-difluoro-4-[(3-fluorophenoxy)methyl]-N-(methylsulfonyl)benzamide], for which the IC50 was 570 nM.
On to `CS(=O)(=O)NC(=O)c1cc(F)c(COc2ccccc2OC(F)(F)F)cc1F` [Example 117, 2,5-difluoro-N-(methylsulfonyl)-4-{[2-(trifluoromethoxy)phenoxy]methyl}benzamide], for which the IC50 is 2200 nM.
Take `CS(=O)(=O)NC(=O)c1cc(F)c(COc2cc(F)cc(F)c2)cc1F` [Example 118, 4-[(3,5-difluorophenoxy)methyl]-2,5-difluoro-N-(methylsulfonyl)benzamide]: the IC50 is more than 1000 nM.
Regarding `Cc1cc(C)cc(OCc2cc(F)c(C(=O)NS(C)(=O)=O)cc2F)c1` [Example 119, 4-[(3,5-dimethylphenoxy)methyl]-2,5-difluoro-N-(methylsulfonyl)benzamide], the IC50 is 380 nM.
Take `Cc1ccc(OCc2cc(F)c(C(=O)NS(C)(=O)=O)cc2F)cc1C` [Example 120, 4-[(3,4-dimethylphenoxy)methyl]-2,5-difluoro-N-(methylsulfonyl)benzamide]: the IC50 was 700 nM.
`COc1ccc(Cl)c(OCc2cc(F)c(C(=O)NS(C)(=O)=O)cc2F)c1` [Example 122, 4-[(2-chloro-5-methoxyphenoxy)methyl]-2,5-difluoro-N-(methylsulfonyl)benzamide]: the IC50 is 2200 nM.
Turning to `CS(=O)(=O)NC(=O)c1cc(F)c(COc2cc(C(F)(F)F)ccc2F)cc1F` [Example 123, 2,5-difluoro-4-{[2-fluoro-5-(trifluoromethyl)phenoxy]methyl}-N-(methylsulfonyl)benzamide], the IC50 was 850 nM.
In the case of `CS(=O)(=O)NC(=O)c1cc(F)c(COc2cc(F)cc(Cl)c2)cc1F` [Example 124, 4-[(3-chloro-5-fluorophenoxy)methyl]-2,5-difluoro-N-(methylsulfonyl)benzamide], the IC50 is 180 nM.
Turning to `CS(=O)(=O)NC(=O)c1cc(F)c(COc2ccc(F)c(C#N)c2)cc1F` [Example 125, 4-[(3-cyano-4-fluorophenoxy)methyl]-2,5-difluoro-N-(methylsulfonyl)benzamide], the IC50 was 1400 nM.
In the case of `CS(=O)(=O)NC(=O)c1cc(F)c(COc2c(F)cccc2F)cc1F` [Example 126, 4-[(2,6-difluorophenoxy)methyl]-2,5-difluoro-N-(methylsulfonyl)benzamide], the IC50 is more than 3000 nM.
In the case of `CS(=O)(=O)NC(=O)c1cc(F)c(COc2ccc(C#N)c(F)c2)cc1F` [Example 127, 4-[(4-cyano-3-fluorophenoxy)methyl]-2,5-difluoro-N-(methylsulfonyl)benzamide] it was 2600 nM; in that of `COc1cc(F)cc(OCc2cc(F)c(C(=O)NS(C)(=O)=O)cc2F)c1` [Example 128, 2,5-difluoro-4-[(3-fluoro-5-methoxyphenoxy)methyl]-N-(methylsulfonyl)benzamide], 2900 nM.
For `CS(=O)(=O)NC(=O)c1cc(F)c(COc2ccc(F)c(F)c2Cl)cc1F` [Example 129, 4-[(2-chloro-3,4-difluorophenoxy)methyl]-2,5-difluoro-N-(methylsulfonyl)benzamide], the IC50 is 1900 nM.
Take `CS(=O)(=O)NC(=O)c1cc(F)c(COc2ccc3ccccc3c2)cc1F` [Example 130, 2,5-difluoro-N-(methylsulfonyl)-4-[(2-naphthyloxy)methyl]benzamide]: the IC50 was 240 nM.
`Cc1cc(Cl)c(OCc2cc(F)c(C(=O)NS(C)(=O)=O)cc2F)cc1C#N` [Example 131, 4-[(2-chloro-5-cyano-4-methylphenoxy)methyl]-2,5-difluoro-N-(methylsulfonyl)benzamide]: the IC50 is more than 1000 nM.
In the case of `COc1cc(C#N)ccc1OCc1cc(F)c(C(=O)NS(C)(=O)=O)cc1F` [Example 132, 4-[(4-cyano-2-methoxyphenoxy)methyl]-2,5-difluoro-N-(methylsulfonyl)benzamide], the IC50 was more than 3000 nM.
In the case of `CS(=O)(=O)NC(=O)c1cc(F)c(COc2ccc(Cl)cc2F)cc1F` [Example 133, 4-[(4-chloro-2-fluorophenoxy)methyl]-2,5-difluoro-N-(methylsulfonyl)benzamide] it was more than 1000 nM; in that of `CS(=O)(=O)NC(=O)c1cc(F)c(COc2cc(Cl)ccc2Cl)cc1F` [Example 134, 4-[(2,5-dichlorophenoxy)methyl]-2,5-difluoro-N-(methylsulfonyl)benzamide], 470 nM; in that of `CS(=O)(=O)NC(=O)c1cc(F)c(COc2ccc(Cl)cc2C#N)cc1F` [Example 135, 4-[(4-chloro-2-cyanophenoxy)methyl]-2,5-difluoro-N-(methylsulfonyl)benzamide], more than 3000 nM.
Consider `CS(=O)(=O)NC(=O)c1cc(F)c(COc2cccc(N3CCOCC3)c2)cc1F` [Example 136, 2,5-difluoro-N-(methylsulfonyl)-4-[(3-morpholin-4-ylphenoxy)methyl]benzamide], for which the IC50 was more than 3000 nM.
Take `CS(=O)(=O)NC(=O)c1cc(F)c(COc2ccccc2C#N)cc1F` [Example 137, 4-[(2-cyanophenoxy)methyl]-2,5-difluoro-N-(methylsulfonyl)benzamide]: the IC50 was more than 3000 nM.
For the molecule `CS(=O)(=O)NC(=O)c1cc(F)c(COc2ccc(-c3cocn3)cc2)cc1F` [Example 138, 2,5-difluoro-N-(methylsulfonyl)-4-{[4-(1,3-oxazol-4-yl)phenoxy]methyl}benzamide], the IC50 was 4200 nM.
In the case of `COc1cc(OCc2cc(F)c(C(=O)NS(C)(=O)=O)cc2F)ccc1-n1cccn1` [Example 139, 2,5-difluoro-4-{[3-methoxy-4-(1H-pyrazol-1-yl)phenoxy]methyl}-N-(methylsulfonyl)benzamide] it was more than 3000 nM.
Turning to `CS(=O)(=O)NC(=O)c1cc(F)c(COc2c(F)ccc(F)c2F)cc1F` [Example 140, 2,5-difluoro-N-(methylsulfonyl)-4-[(2,3,6-trifluorophenoxy)methyl]benzamide], the IC50 was 2200 nM.
Consider `CS(=O)(=O)NC(=O)c1cc(F)c(COc2ccc(C(F)(F)F)cc2)cc1F` [Example 141, 2,5-difluoro-N-(methylsulfonyl)-4-{[4-(trifluoromethyl)phenoxy]methyl}benzamide], for which the IC50 is 330 nM.
In the case of `CS(=O)(=O)NC(=O)c1cc(F)c(COc2ccc(F)c(C(F)(F)F)c2)cc1F` [Example 142, 2,5-difluoro-4-{[4-fluoro-3-(trifluoromethyl)phenoxy]methyl}-N-(methylsulfonyl)benzamide] it was 600 nM; in that of `CC(C)Oc1ccc(F)cc1OCc1cc(F)c(C(=O)NS(C)(=O)=O)cc1F` [Example 143, 2,5-difluoro-4-[(5-fluoro-2-isopropoxyphenoxy)methyl]-N-(methylsulfonyl)benzamide], 9700 nM.
With `CS(=O)(=O)NC(=O)c1cc(F)c(COc2ccc(OC(F)(F)F)cc2)cc1F` [Example 144, 2,5-difluoro-N-(methylsulfonyl)-4-{[4-(trifluoromethoxy)phenoxy]methyl}benzamide], the IC50 was 150 nM.
As for `CS(=O)(=O)NC(=O)c1cc(F)c(COc2ccc(F)cc2C2CC2)cc1F` [Example 145, 4-[(2-cyclopropyl-4-fluorophenoxy)methyl]-2,5-difluoro-N-(methylsulfonyl)benzamide], the IC50 was 2300 nM.
As for `COc1ccc(OCc2cc(F)c(C(=O)NS(C)(=O)=O)cc2F)c(C#N)c1` [Example 146, 4-[(2-cyano-4-methoxyphenoxy)methyl]-2,5-difluoro-N-(methylsulfonyl)benzamide], the figure is more than 1000 nM.
Take `CC(C)c1ccc(OCc2cc(F)c(C(=O)NS(C)(=O)=O)cc2F)cc1` [Example 147, 2,5-difluoro-4-[(4-isopropylphenoxy)methyl]-N-(methylsulfonyl)benzamide]: the IC50 was 170 nM.
In the case of `CS(=O)(=O)NC(=O)c1cc(F)c(COc2ccc(Cl)cc2-c2ccno2)cc1F` [Example 148, 4-[(4-chloro-2-isoxazol-5-ylphenoxy)methyl]-2,5-difluoro-N-(methylsulfonyl)benzamide], the IC50 was more than 1000 nM.
On to `CS(=O)(=O)NC(=O)c1cc(F)c(COc2c(F)cccc2Cl)cc1F` [Example 149, 4-[(2-chloro-6-fluorophenoxy)methyl]-2,5-difluoro-N-(methylsulfonyl)benzamide], for which the IC50 is 4000 nM.
In the case of `COc1cc(C)cc(OCc2cc(F)c(C(=O)NS(C)(=O)=O)cc2F)c1` [Example 150, 2,5-difluoro-4-[(3-methoxy-5-methylphenoxy)methyl]-N-(methylsulfonyl)benzamide], the IC50 is 500 nM.
Consider `Cc1ccc(OCc2cc(F)c(C(=O)NS(C)(=O)=O)cc2F)cc1Cl` [Example 151, 4-[(3-chloro-4-methylphenoxy)methyl]-2,5-difluoro-N-(methylsulfonyl)benzamide], for which the IC50 was 65 nM.
